# pIC50: −log10 of the molar value.
# Biological target: recombinant human SYK (GST-hSYK fusion protein) (Homo sapiens, UniProt P43405)
# Assay: biochemical
# Settings: RHSYK Activity, Table 54A
# Excerpt: Homogeneous Time-Resolved Fluorescence (HTRF) Assay for the Recombinant Human SYK Enzyme:
row,Compound,pIC50
1,Cc1cc(Nc2nccc(C(F)(F)F)n2)cc(-c2cnc(C3(O)CCN(C(=O)c4ccc(C#N)cc4)CC3)s2)c1 [Example 54A-56],> 7.00
2,Cc1cc(Nc2nccc(C(F)(F)F)n2)cc(-c2cnc(C3(O)CCN(C(=O)c4ccc(O)c(F)c4)CC3)s2)c1 [Example 54A-57],> 7.00
3,Cc1cc(Nc2nccc(C(F)(F)F)n2)cc(-c2cnc(C3(O)CCN(C(=O)CC(N)C(F)(F)F)CC3)s2)c1 (stereo not drawn) [Example 54A-58],> 7.00
4,COC(=O)CN1CCC(O)(c2ncc(-c3cc(C)cc(Nc4nccc(C(F)(F)F)n4)c3)s2)CC1 [Example 54A-70],> 7.00
5,COC(=O)CCN1CCC(O)(c2ncc(-c3cc(C)cc(Nc4nccc(C(F)(F)F)n4)c3)s2)CC1 [Example 54A-71],> 7.00
6,COC(=O)C(C)N1CCC(O)(c2ncc(-c3cc(C)cc(Nc4nccc(C(F)(F)F)n4)c3)s2)CC1 (stereo not drawn) [Example 54A-72],> 7.00
7,COC(=O)CCCN1CCC(O)(c2ncc(-c3cc(C)cc(Nc4nccc(C(F)(F)F)n4)c3)s2)CC1 [Example 54A-73],> 7.00

# Same assay, conditions: rhSYK Activity, Table 54D
row,Compound,pIC50
1,Cc1cc(Nc2nccc(C(C)C)n2)cc(-c2cnc(C3(O)CCCNCC3)s2)c1 (stereo not drawn) [Example 54D-1],> 7.00
2,Cc1cc(Nc2nccc(C(C)C)n2)cc(-c2cnc(C3(O)CCCN(C(=O)C(C)O)CC3)s2)c1 (stereo not drawn) [Example 54D-4],> 7.00
3,Cc1cc(Nc2nccc(C(C)C)n2)cc(-c2cnc(C3(O)CCCN(C(=O)CC(N)=O)CC3)s2)c1 (stereo not drawn) [Example 54D-6],> 7.00
4,Cc1cc(Nc2nccc(C(C)C)n2)cc(-c2cnc(C3(O)CCCN(C(=O)CC(=O)O)CC3)s2)c1 (stereo not drawn) [Example 54D-7],> 7.00
5,Cc1cc(Nc2nccc(C(C)C)n2)cc(-c2cnc(C3(O)CCCN(C(=O)C(O)CO)CC3)s2)c1 (stereo not drawn) [Example 54D-8],> 7.00
6,Cc1cc(Nc2nccc(C(C)C)n2)cc(-c2cnc(C3(O)CCCN(C(=O)CCC(N)=O)CC3)s2)c1 (stereo not drawn) [Example 54D-15],> 7.00
7,Cc1cc(Nc2nccc(C(F)(F)F)n2)cc(-c2cnc(C3(O)CCCN(C(=O)CCC#N)CC3)s2)c1 (stereo not drawn) [Example 54D-16],> 7.00
8,Cc1cc(Nc2nccc(C(C)C)n2)cc(-c2cnc(C3(O)CCCN(C(=O)Cn4cnnn4)CC3)s2)c1 (stereo not drawn) [Example 54D-19],> 7.00
9,CCOC(=O)CC(=O)N1CCCC(O)(c2ncc(-c3cc(C)cc(Nc4nccc(C(C)C)n4)c3)s2)CC1 (stereo not drawn) [Example 54D-30],> 7.00
10,Cc1cc(Nc2nccc(C(C)C)n2)cc(-c2cnc(C3(O)CCCN(C(=O)C(C)(CO)CO)CC3)s2)c1 (stereo not drawn) [Example 54D-31],> 7.00
11,Cc1cc(Nc2nccc(C(F)(F)F)n2)cc(-c2cnc(C3(O)CCCN(C(=O)C4CCCO4)CC3)s2)c1 (stereo not drawn) [Example 54D-40],> 7.00
12,Cc1cc(Nc2nccc(C(F)(F)F)n2)cc(-c2cnc(C3(O)CCCN(C(=O)Cc4c[nH]cn4)CC3)s2)c1 (stereo not drawn) [Example 54D-47],> 7.00
13,Cc1cc(Nc2nccc(C(F)(F)F)n2)cc(-c2cnc(C3(O)CCCN(C(=O)Cn4cncn4)CC3)s2)c1 (stereo not drawn) [Example 54D-49],> 7.00
14,Cc1cc(Nc2nccc(C(F)(F)F)n2)cc(-c2cnc(C3(O)CCCN(C(=O)CC(F)(F)F)CC3)s2)c1 (stereo not drawn) [Example 54D-54],> 7.00
15,Cc1cc(Nc2nccc(C(F)(F)F)n2)cc(-c2cnc(C3(O)CCCN(C(=O)Cn4cnnn4)CC3)s2)c1 (stereo not drawn) [Example 54D-56],> 7.00
16,Cc1cc(Nc2nccc(C(F)(F)F)n2)cc(-c2cnc(C3(O)CCCN(C(=O)C4CCC(=O)N4)CC3)s2)c1 (stereo not drawn) [Example 54D-61],> 7.00

row,Compound,pIC50
1,Cc1cc(Nc2nccc(C(F)(F)F)n2)cc(-c2cnc(C3(O)CCCN(C(=O)C4CNC(=O)N4)CC3)s2)c1 (stereo not drawn) [Example 54D-64],> 7.00
2,Cc1cc(Nc2nccc(C(F)(F)F)n2)cc(-c2cnc(C3(O)CCCN(C(=O)C4CCCCO4)CC3)s2)c1 (stereo not drawn) [Example 54D-65],> 7.00
3,Cc1cc(Nc2nccc(C(F)(F)F)n2)cc(-c2cnc(C3(O)CCCN(C(=O)C4CCC(=O)O4)CC3)s2)c1 (stereo not drawn) [Example 54D-66],> 7.00
4,Cc1cc(Nc2nccc(C(F)(F)F)n2)cc(-c2cnc(C3(O)CCCN(C(=O)CC4CCOC4)CC3)s2)c1 (stereo not drawn) [Example 54D-67],> 7.00
5,Cc1cc(Nc2nccc(C(F)(F)F)n2)cc(-c2cnc(C3(O)CCCN(C(=O)C4CCCOC4)CC3)s2)c1 (stereo not drawn) [Example 54D-68],> 7.00
6,Cc1cc(Nc2nccc(C(F)(F)F)n2)cc(-c2cnc(C3(O)CCCN(C(=O)C4(C(=O)O)CC4)CC3)s2)c1 (stereo not drawn) [Example 54D-70],> 7.00
7,Cc1cc(Nc2nccc(C(F)(F)F)n2)cc(-c2cnc(C3(O)CCCN(C(=O)C4CC4C(=O)O)CC3)s2)c1 (stereo not drawn) [Example 54D-71],> 7.00
8,COC(=O)CCC(=O)N1CCCC(O)(c2ncc(-c3cc(C)cc(Nc4nccc(C(F)(F)F)n4)c3)s2)CC1 (stereo not drawn) [Example 54D-72],> 7.00
9,CCOC(=O)CC(=O)N1CCCC(O)(c2ncc(-c3cc(C)cc(Nc4nccc(C(F)(F)F)n4)c3)s2)CC1 (stereo not drawn) [Example 54D-73],> 7.00
10,Cc1cc(Nc2nccc(C(F)(F)F)n2)cc(-c2cnc(C3(O)CCCN(C(=O)CCNC(N)=O)CC3)s2)c1 (stereo not drawn) [Example 54D-76],> 7.00
11,Cc1cc(Nc2nccc(C(F)(F)F)n2)cc(-c2cnc(C3(O)CCCN(C(=O)C(C)(CO)CO)CC3)s2)c1 (stereo not drawn) [Example 54D-78],> 7.00
12,Cc1cc(Nc2nccc(C(F)(F)F)n2)cc(-c2cnc(C3(O)CCCN(C(=O)CS(C)(=O)=O)CC3)s2)c1 (stereo not drawn) [Example 54D-83],> 7.00
13,Cc1cc(Nc2nccc(C(F)(F)F)n2)cc(-c2cnc(C3(O)CCCN(C(=O)CCc4cn[nH]c4)CC3)s2)c1 (stereo not drawn) [Example 54D-88],> 7.00
14,Cc1cc(Nc2nccc(C(F)(F)F)n2)cc(-c2cnc(C3(O)CCCN(C(=O)CCC(F)(F)F)CC3)s2)c1 (stereo not drawn) [Example 54D-90],> 7.00
15,Cc1cc(Nc2nccc(C(F)(F)F)n2)cc(-c2cnc(C3(O)CCCN(C(=O)CN4CCCC4=O)CC3)s2)c1 (stereo not drawn) [Example 54D-91],> 7.00
16,Cc1cc(Nc2nccc(C(F)(F)F)n2)cc(-c2cnc(C3(O)CCCN(C(=O)C4CCCC(=O)N4)CC3)s2)c1 (stereo not drawn) [Example 54D-92],> 7.00

# Other lines, results leading:
row,pIC50,Compound
1,> 7.00,CC(=O)N1CCCC(O)(c2ncc(-c3cc(C)cc(Nc4nccc(C(F)(F)F)n4)c3)s2)CC1 (stereo not drawn) [Example 54D-2]
2,> 7.00,CCC(=O)N1CCCC(O)(c2ncc(-c3cc(C)cc(Nc4nccc(C(F)(F)F)n4)c3)s2)CC1 (stereo not drawn) [Example 54D-5]
3,> 7.00,Cc1cc(Nc2nccc(C(F)(F)F)n2)cc(-c2cnc(C3(O)CCCN(C(=O)CC#N)CC3)s2)c1 (stereo not drawn) [Example 54D-9]
4,> 7.00,Cc1cc(Nc2nccc(C(F)(F)F)n2)cc(-c2cnc(C3(O)CCCN(C(=O)C4CC4)CC3)s2)c1 (stereo not drawn) [Example 54D-10]
5,> 7.00,C=CCC(=O)N1CCCC(O)(c2ncc(-c3cc(C)cc(Nc4nccc(C(F)(F)F)n4)c3)s2)CC1 (stereo not drawn) [Example 54D-11]
6,> 7.00,COCC(=O)N1CCCC(O)(c2ncc(-c3cc(C)cc(Nc4nccc(C(F)(F)F)n4)c3)s2)CC1 (stereo not drawn) [Example 54D-12]
7,> 7.00,Cc1cc(Nc2nccc(C(F)(F)F)n2)cc(-c2cnc(C3(O)CCCN(C(=O)CCO)CC3)s2)c1 (stereo not drawn) [Example 54D-13]
8,> 7.00,Cc1cc(Nc2nccc(C(F)(F)F)n2)cc(-c2cnc(C3(O)CCCN(C(=O)C(C)O)CC3)s2)c1 (stereo not drawn) [Example 54D-14]
9,> 7.00,Cc1cc(Nc2nccc(C(F)(F)F)n2)cc(-c2cnc(C3(O)CCCN(C(=O)CC(N)=O)CC3)s2)c1 (stereo not drawn) [Example 54D-22]
10,> 7.00,Cc1cc(Nc2nccc(C(F)(F)F)n2)cc(-c2cnc(C3(O)CCCN(C(=O)CC(C)O)CC3)s2)c1 (stereo not drawn) [Example 54D-23]
11,> 7.00,Cc1cc(Nc2nccc(C(F)(F)F)n2)cc(-c2cnc(C3(O)CCCN(C(=O)CC(=O)O)CC3)s2)c1 (stereo not drawn) [Example 54D-24]
12,> 7.00,Cc1cc(Nc2nccc(C(F)(F)F)n2)cc(-c2cnc(C3(O)CCCN(C(=O)C(O)CO)CC3)s2)c1 (stereo not drawn) [Example 54D-27]
13,> 7.00,Cc1cc(Nc2nccc(C(F)(F)F)n2)cc(-c2cnc(C3(O)CCCN(C(=O)c4ncc[nH]4)CC3)s2)c1 (stereo not drawn) [Example 54D-34]
14,> 7.00,Cc1cc(Nc2nccc(C(F)(F)F)n2)cc(-c2cnc(C3(O)CCCN(C(=O)CCC(=O)O)CC3)s2)c1 (stereo not drawn) [Example 54D-43]
15,> 7.00,Cc1cc(Nc2nccc(C(F)(F)F)n2)cc(-c2cnc(C3(O)CCCN(C(=O)CC(C)(C)O)CC3)s2)c1 (stereo not drawn) [Example 54D-44]
16,> 7.00,Cc1cc(Nc2nccc(C(F)(F)F)n2)cc(-c2cnc(C3(O)CCCN(C(=O)c4ccccc4)CC3)s2)c1 (stereo not drawn) [Example 54D-45]
17,> 7.00,Cc1cc(Nc2nccc(C(F)(F)F)n2)cc(-c2cnc(C3(O)CCCN(C(=O)Cn4ccnc4)CC3)s2)c1 (stereo not drawn) [Example 54D-46]
18,> 7.00,Cc1cc(Nc2nccc(C(F)(F)F)n2)cc(-c2cnc(C3(O)CCCN(C(=O)c4cc(C)on4)CC3)s2)c1 (stereo not drawn) [Example 54D-48]
19,> 7.00,Cc1cc(Nc2nccc(C(F)(F)F)n2)cc(-c2cnc(C3(O)CCCN(C(=O)c4nnnn4C)CC3)s2)c1 (stereo not drawn) [Example 54D-55]
20,> 7.00,Cc1cc(Nc2nccc(C(F)(F)F)n2)cc(-c2cnc(C3(O)CCCN(C(=O)c4n[nH]c(=O)[nH]4)CC3)s2)c1 (stereo not drawn) [Example 54D-62]
21,> 7.00,Cc1cc(Nc2nccc(C(F)(F)F)n2)cc(-c2cnc(C3(O)CCCN(C(=O)C(O)C(C)(C)O)CC3)s2)c1 (stereo not drawn) [Example 54D-77]
22,> 7.00,Cc1cc(Nc2nccc(C(F)(F)F)n2)cc(-c2cnc(C3(O)CCCN(C(=O)Cc4cccnc4)CC3)s2)c1 (stereo not drawn) [Example 54D-81]
23,> 7.00,Cc1cc(Nc2nccc(C(F)(F)F)n2)cc(-c2cnc(C3(O)CCCN(C(=O)Cc4ccccn4)CC3)s2)c1 (stereo not drawn) [Example 54D-82]
24,> 7.00,Cc1cc(Nc2nccc(C(F)(F)F)n2)cc(-c2cnc(C3(O)CCCN(C(=O)c4ccc(O)cc4)CC3)s2)c1 (stereo not drawn) [Example 54D-84]
25,> 7.00,Cc1cc(Nc2nccc(C(F)(F)F)n2)cc(-c2cnc(C3(O)CCCN(C(=O)c4ccc(O)cn4)CC3)s2)c1 (stereo not drawn) [Example 54D-85]
26,> 7.00,Cc1cc(Nc2nccc(C(F)(F)F)n2)cc(-c2cnc(C3(O)CCCN(C(=O)c4cccc(O)n4)CC3)s2)c1 (stereo not drawn) [Example 54D-86]
27,> 7.00,Cc1cc(Nc2nccc(C(F)(F)F)n2)cc(-c2cnc(C3(O)CCCN(C(=O)c4cc(O)ccn4)CC3)s2)c1 (stereo not drawn) [Example 54D-87]
